The record followed here is US20170022171A1, “2,5-DISUBSTITUTED CYCLOPENTANECARBOXYLIC ACIDS AND THEIR USE” (Bayer Pharma Aktiengesellschaft, priority 2014, published 2017).

Assay type in all cases: biochemical
Test [1] concerns the target T1, mouse MMP-8 (Mus musculus, UniProt O70138).
T1 construct: purchased R&D Systems 2904-MP
The test is described as follows: In vitro mouse MMP-8 inhibition test. The text has this:
(§1) The MMP-mediated amidolytic cleavage of a suitable peptide substrate leads to an increase in fluorescent light here too. The signal intensity of the fluorescent light is directly proportional to the enzyme activity. The active concentration of a test compound at which half the enzyme is inhibited (50% signal intensity of the fluorescent light) is reported as the IC50 value.
(§2) Recombinant mouse MMP-8 (from R&D Systems, 2904-MP) is chemically activated in accordance with the manufacturer's instructions using APMA. 1 μl of the test compound to be analysed (as a solution in DMSO, suitable concentrations, for example, 1 nM to 30 μM) is pipetted into 24 μl of activated enzyme (final concentration, for example, 2 nM) in reaction buffer (50 mM Tris/HCl pH 7.5, 10 mM CaCl2, 150 mM NaCl, 0.05% Brij®-35) in a white 384-hole microtiter plate (MTP). The enzymatic reaction is started by adding the intramolecularly quenched Mca-Lys-Pro-Leu-Gly-Leu-Dpa(Dnp)-Ala-Arg-NH2 substrate (final concentration, for example, 5 μM; R&D Systems, ES-010), so as to result in a total test volume of 50 μl. The course of the MMP-8 reaction is measured by measuring the fluorescence intensity (excitation 320 nm, emission 410 nm) over a suitable period of time (for example over 120 min at a temperature of 32° C.).

Test [2] concerns the target T2, mouse MMP-12 (Mus musculus, UniProt P34960).
T2 construct: purchased R&D Systems 3467-MP
Put plainly: In vitro mouse MMP-12 inhibition test (standard or high-sensitivity).
From the text: as §1
Recombinant mouse MMP-12 (from R&D Systems, 3467-MP) is autocatalytically activated in accordance with the manufacturer's instructions. 1 μl of the test compound to be analysed (as a solution in DMSO, suitable concentrations, for example, 1 nM to 30 μM) is pipetted into 24 μl of activated enzyme (final concentration, for example, 1 nM) in reaction buffer (50 mM Tris/HCl pH 7.5, 10 mM CaCl2, 150 mM NaCl, 0.05% Brij®-35) in a white 384-hole microtiter plate (MTP). The enzymatic reaction is started by adding the intramolecularly quenched Mca-Lys-Pro-Leu-Gly-Leu-Dpa(Dnp)-Ala-Arg-NH2 substrate (final concentration, for example, 5 μM; R&D Systems, ES-010), so as to result in a total test volume of 50 The course of the MMP-12 reaction is measured by measuring the fluorescence intensity (excitation 320 nm, emission 410 nm) over a suitable period of time (for example over 120 min at a temperature of 32° C.).
In this case, an enzyme concentration ten times lower is used (final concentration, for example, 0.1 nM) in order to achieve an elevated test sensitivity. The incubation period chosen for the test is correspondingly longer (for example 16 hours).

Test [3] concerns the target T3, mouse MMP-9 (Mus musculus, UniProt P41245).
T3 construct: purchased R&D Systems 909-MP
The test is described as follows: In vitro mouse MMP-9 inhibition test.
From the text: as §1
Recombinant mouse MMP-9 (from R&D Systems, 909-MP) is chemically activated in accordance with the manufacturer's instructions using APMA. 1 μl of the test compound to be analysed (as a solution in DMSO, suitable concentrations, for example, 1 nM to 30 μM) is pipetted into 24 μl of activated enzyme (final concentration, for example, 0.1 nM) in reaction buffer (50 mM Tris/HCl pH 7.5, 10 mM CaCl2, 150 mM NaCl, 0.05% Brij®-35) in a white 384-hole microtiter plate (MTP). The enzymatic reaction is started by adding the intramolecularly quenched Mca-Pro-Leu-Gly-Leu-Dpa(Dnp)-Ala-Arg-NH2 substrate (final concentration, for example, 5 μM; R&D Systems, ES-001), so as to result in a total test volume of 50 The course of the MMP-9 reaction is measured by measuring the fluorescence intensity (excitation 320 nm, emission 410 nm) over a suitable period of time (for example over 120 min at a temperature of 32° C.).

Test [4] has as its target T4, mouse MMP-3 (Mus musculus, UniProt P28862).
T4 construct: purchased R&D Systems 548-MP
The test is described as follows: In vitro mouse MMP-3 inhibition test.
From the text: as §1
as §2, with “mouse MMP-3” for “mouse MMP-8”, “Systems, 548-MP)” for “Systems, 2904-MP)”, “example, 0.5” for “example, 2”, “quenched Mca-Arg-Pro-Lys-Pro-Val-Glu-Nval-Trp-Arg-Lys(Dnp)-NH2” for “quenched Mca-Lys-Pro-Leu-Gly-Leu-Dpa(Dnp)-Ala-Arg-NH2”, “Systems, ES-002),” for “Systems, ES-010),”, “the MMP-3” for “the MMP-8”

In test [5] the target is T5, mouse MMP-7 (Mus musculus, UniProt Q10738).
T5 construct: purchased R&D Systems 2967-MP
T5 sequence (Q10738 95-264): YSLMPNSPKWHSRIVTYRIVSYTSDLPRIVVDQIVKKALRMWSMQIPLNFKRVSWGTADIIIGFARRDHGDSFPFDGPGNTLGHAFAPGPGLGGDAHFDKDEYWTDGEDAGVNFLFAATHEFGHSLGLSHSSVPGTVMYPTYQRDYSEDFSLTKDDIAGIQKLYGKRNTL
Put plainly: In vitro mouse MMP-7 inhibition test.
From the text: as §1
as §2, with “mouse MMP-7” for “mouse MMP-8”, “Systems, 2967-MP)” for “Systems, 2904-MP)”, “example, 0.5” for “example, 2”, “the MMP-7” for “the MMP-8”

Some results are limits rather than exact numbers.

T3 sequence (P41245 108-730): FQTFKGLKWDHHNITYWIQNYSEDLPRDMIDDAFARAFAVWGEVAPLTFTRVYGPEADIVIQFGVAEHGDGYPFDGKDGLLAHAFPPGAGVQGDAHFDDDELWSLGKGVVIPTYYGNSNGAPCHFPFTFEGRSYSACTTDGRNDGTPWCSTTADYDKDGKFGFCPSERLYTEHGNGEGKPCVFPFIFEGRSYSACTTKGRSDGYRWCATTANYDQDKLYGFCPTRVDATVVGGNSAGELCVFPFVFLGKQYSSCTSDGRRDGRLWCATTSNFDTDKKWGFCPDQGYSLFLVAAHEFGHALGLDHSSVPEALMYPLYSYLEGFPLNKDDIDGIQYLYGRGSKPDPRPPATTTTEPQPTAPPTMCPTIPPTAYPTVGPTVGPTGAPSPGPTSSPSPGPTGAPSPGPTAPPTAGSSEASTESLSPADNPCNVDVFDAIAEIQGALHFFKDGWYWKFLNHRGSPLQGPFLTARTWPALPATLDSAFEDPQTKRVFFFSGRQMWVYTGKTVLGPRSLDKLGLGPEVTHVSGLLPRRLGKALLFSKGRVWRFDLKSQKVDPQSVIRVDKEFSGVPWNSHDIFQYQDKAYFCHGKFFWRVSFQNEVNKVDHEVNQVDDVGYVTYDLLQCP
T4 sequence (P28862 100-477): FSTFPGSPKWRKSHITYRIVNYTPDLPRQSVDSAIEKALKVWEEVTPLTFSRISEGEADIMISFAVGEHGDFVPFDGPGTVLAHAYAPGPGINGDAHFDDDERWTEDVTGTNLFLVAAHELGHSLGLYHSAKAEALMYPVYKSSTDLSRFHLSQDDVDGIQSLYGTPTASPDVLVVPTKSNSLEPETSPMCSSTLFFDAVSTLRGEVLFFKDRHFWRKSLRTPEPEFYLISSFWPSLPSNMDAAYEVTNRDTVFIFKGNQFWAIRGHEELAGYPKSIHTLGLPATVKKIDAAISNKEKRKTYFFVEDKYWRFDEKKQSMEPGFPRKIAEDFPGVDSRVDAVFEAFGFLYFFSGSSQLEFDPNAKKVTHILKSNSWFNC
T1 sequence (O70138 101-465): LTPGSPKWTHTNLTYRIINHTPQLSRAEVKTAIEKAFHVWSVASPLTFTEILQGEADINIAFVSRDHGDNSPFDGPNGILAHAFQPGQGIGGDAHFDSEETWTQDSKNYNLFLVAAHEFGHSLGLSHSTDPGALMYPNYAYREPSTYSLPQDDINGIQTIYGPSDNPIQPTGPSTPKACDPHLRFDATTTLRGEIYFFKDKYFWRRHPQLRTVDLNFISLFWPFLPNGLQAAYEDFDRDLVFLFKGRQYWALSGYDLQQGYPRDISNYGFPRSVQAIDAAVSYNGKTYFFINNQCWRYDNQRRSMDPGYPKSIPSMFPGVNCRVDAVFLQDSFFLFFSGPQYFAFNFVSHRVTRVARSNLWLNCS
T2 sequence (P34960 110-473): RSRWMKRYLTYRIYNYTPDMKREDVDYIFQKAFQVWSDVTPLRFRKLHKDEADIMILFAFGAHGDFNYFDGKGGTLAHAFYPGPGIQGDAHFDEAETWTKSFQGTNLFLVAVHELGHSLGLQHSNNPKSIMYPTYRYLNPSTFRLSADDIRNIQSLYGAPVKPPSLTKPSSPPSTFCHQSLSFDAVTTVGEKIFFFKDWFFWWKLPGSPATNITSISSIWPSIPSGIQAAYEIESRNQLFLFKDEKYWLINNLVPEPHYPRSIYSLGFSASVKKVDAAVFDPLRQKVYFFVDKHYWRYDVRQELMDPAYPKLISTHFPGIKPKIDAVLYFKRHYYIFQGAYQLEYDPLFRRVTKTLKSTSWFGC

With `O=C(O)[C@@H]1[C@@H](Cn2nnc3ccc(C(F)(F)F)cc3c2=O)CC[C@H]1C(=O)c1ccc(SCc2ccc(Cl)c(Cl)c2)cc1` (single isomer, unassigned) [Example 80, (+)-(1RS,2RS,5SR)-2-{4-[(3,4-Dichlorobenzyl)sulphanyl]benzoyl}-5-{[4-oxo-6-(trifluoromethyl)-1,2,3-benzotriazin-3(4H)-yl]methyl}cyclopentanecarboxylic acid], the IC50 was 130 nM in test [1]; 4.3 nM in test [2]; more than 40000 nM in test [3]; 2500 nM in test [4]; 130 nM in test [5].

For the compound `Cc1cccc(COc2ccc(C(=O)[C@H]3CC[C@@H](Cn4nnc5ccc(C)cc5c4=O)[C@@H]3C(=O)O)cc2)c1` (racemic) [Example 97, (+/−)-(1RS,2RS,5SR)-2-{4-[(3-Methylbenzyl)oxy]benzoyl}-5-[(6-methyl-4-oxo-1,2,3-benzotriazin-3(4H)-yl)methyl]cyclopentanecarboxylic acid], the IC50 was 1300 nM in test [1]; 6.1 nM in test [2]; 1600 nM in test [3]; 4600 nM in test [4]; 160 nM in test [5].

On to `CCCCCOc1ccc(C(=O)[C@H]2CC[C@@H](Cn3nnc4ccc(C)cc4c3=O)[C@@H]2C(=O)O)cc1` (racemic) [Example 123, (+/−)-(1RS,2SR,5RS)-2-[(6-Methyl-4-oxo-1,2,3-benzotriazin-3(4H)-yl)methyl]-5-[4-(pentyloxy)benzoyl]cyclopentanecarboxylic acid], for which the IC50 in test [1] was 91 nM; in test [2] it was 4.9 nM; in test [3], 770 nM; in test [4], 1800 nM; in test [5] it was 100 nM.

As for `O=C(O)[C@@H]1[C@@H](Cn2nnc3ccc(C(F)(F)F)cc3c2=O)CC[C@H]1C(=O)c1ccc(OCc2cccc(Cl)c2)cc1` (single isomer, unassigned) [Example 23, (+)-(1RS,2RS,5SR)-2-{4-[(3-Chlorobenzyl)oxy]benzoyl}-5-{[4-oxo-6-(trifluoromethyl)-1,2,3-benzotriazin-3(4H)-yl]methyl}cyclopentanecarboxylic acid], the IC50 in test [1] stood at 300 nM; in test [2], 6.5 nM; in test [3], 1700 nM; in test [4], 8000 nM; in test [5], 69 nM.

`O=C(O)[C@H]1[C@H](Cn2nnc3ccccc3c2=O)CC[C@@H]1C(=O)c1ccc(OCCC2CCCCC2)cc1` (racemic) [Example 5, (+/−)-(1RS,2RS,5SR)-2-[4-(2-Cyclohexylethoxy)benzoyl]-5-[(4-oxo-1,2,3-benzotriazin-3(4H)-yl)methyl]cyclopentanecarboxylic acid]: the IC50 in test [1] stood at 360 nM; in test [2] it was 1.8 nM; in test [3], 930 nM; in test [4], 1300 nM; in test [5], 160 nM.

On to `Cc1ccc2nnn(C[C@@H]3CC[C@H](C(=O)c4ccc(OCc5cccc(C(F)(F)F)c5)cc4)[C@H]3C(=O)O)c(=O)c2c1` (racemic) [Example 100, (+/−)-(1RS,2SR,5RS)-2-[(6-Methyl-4-oxo-1,2,3-benzotriazin-3(4H)-yl)methyl]-5-(4-{[3-(trifluoromethyl)benzyl]oxy}benzoyl)cyclopentanecarboxylic acid], for which the IC50 was 250 nM in test [1]; 1.7 nM in test [2]; 1100 nM in test [3]; 1800 nM in test [4]; 150 nM in test [5].

Consider `Cc1cccc(COc2ccc(C(=O)[C@@H]3CC[C@H](Cn4nnc5ccc(C)cc5c4=O)[C@H]3C(=O)O)cc2)c1` (single isomer, unassigned) [Example 98, (+)-(1RS,2RS,5SR)-2-{4-[(3-Methylbenzyl)oxy]benzoyl}-5-[(6-methyl-4-oxo-1,2,3-benzotriazin-3(4H)-yl)methyl]cyclopentanecarboxylic acid], for which the IC50 in test [1] turned out to be 280 nM; in test [2] it was 1.2 nM; in test [3], 460 nM; in test [4], 730 nM; in test [5] it was 29 nM.

On to `O=C(O)[C@@H]1[C@@H](Cn2nnc3ccc(C(F)(F)F)cc3c2=O)CC[C@H]1C(=O)c1ccc(SCc2cccc(Cl)c2)cc1` (single isomer, unassigned) [Example 77, (+)-(1RS,2RS,5SR)-2-{4-[(3-Chlorobenzyl)sulphanyl]benzoyl}-5-{[4-oxo-6-(trifluoromethyl)-1,2,3-benzotriazin-3(4H)-yl]methyl}cyclopentanecarboxylic acid], for which the IC50 in test [1] was determined as 130 nM; in test [2], 2 nM; in test [3], 23000 nM; in test [4], 1400 nM; in test [5], 54 nM.

With `Cc1ccc2nnn(C[C@@H]3CC[C@H](C(=O)c4ccc(OCc5cccc(Cl)c5)cc4)[C@H]3C(=O)O)c(=O)c2c1` (racemic) [Example 103, (+/−)-(1RS,2RS,5SR)-2-{4-[(3-Chlorobenzyl)oxy]benzoyl}-5-[(6-methyl-4-oxo-1,2,3-benzotriazin-3(4H)-yl)methyl]cyclopentanecarboxylic acid], the IC50 in test [1] was determined as 270 nM; in test [2], 2.3 nM; in test [3], 550 nM; in test [4], 1100 nM; in test [5], 28 nM.
